# Reference: US20260130395A1, “Water Dispersible Botanical Compositions” (Aquila Black Limited, priority 2021, published 2026)
# Experiment: Stability of cannabinoid compounds and Vitamin E components in Beverage 1 (AB White) by LCMSMS
# Format: physicochemical
# Details: for Stability of Plant-Derived Cannabinoid Compounds in AB White, 8° C.: AB White stored at 8° C.; for Stability of Plant-Derived Cannabinoid Compounds in AB White, 21-25° C.: AB White stored at 21-25° C.
structure (smiles),measurement,setting,value
"C=C(C)[C@@H]1CCC(C)=C[C@H]1c1c(O)cc(CCC)cc1O [CBDV, cannabidivarin]","Stability of Plant-Derived Cannabinoid Compounds in AB White, 8° C.",0 days,0.150 µg/mL
same,"Stability of Plant-Derived Cannabinoid Compounds in AB White, 8° C.",1 days,0.146 µg/mL
same,"Stability of Plant-Derived Cannabinoid Compounds in AB White, 8° C.",2 days,0.147 µg/mL
same,"Stability of Plant-Derived Cannabinoid Compounds in AB White, 8° C.",3 days,0.146 µg/mL
same,"Stability of Plant-Derived Cannabinoid Compounds in AB White, 8° C.",5 days,0.147 µg/mL
same,"Stability of Plant-Derived Cannabinoid Compounds in AB White, 8° C.",8 days,0.148 µg/mL
same,"Stability of Plant-Derived Cannabinoid Compounds in AB White, 8° C.",9 days,0.146 µg/mL
same,"Stability of Plant-Derived Cannabinoid Compounds in AB White, 8° C.",10 days,0.148 µg/mL
same,"Stability of Plant-Derived Cannabinoid Compounds in AB White, 8° C.",11 days,0.150 µg/mL
same,"Stability of Plant-Derived Cannabinoid Compounds in AB White, 8° C.",12 days,0.150 µg/mL
same,"Stability of Plant-Derived Cannabinoid Compounds in AB White, 8° C.",15 days,0.150 µg/mL
same,"Stability of Plant-Derived Cannabinoid Compounds in AB White, 8° C.",16 days,0.148 µg/mL
same,"Stability of Plant-Derived Cannabinoid Compounds in AB White, 8° C.",17 days,0.146 µg/mL
same,"Stability of Plant-Derived Cannabinoid Compounds in AB White, 8° C.",18 days,0.146 µg/mL
same,"Stability of Plant-Derived Cannabinoid Compounds in AB White, 8° C.",19 days,0.149 µg/mL
same,"Stability of Plant-Derived Cannabinoid Compounds in AB White, 8° C.",22 days,0.149 µg/mL
same,"Stability of Plant-Derived Cannabinoid Compounds in AB White, 8° C.",23 days,0.149 µg/mL
same,"Stability of Plant-Derived Cannabinoid Compounds in AB White, 8° C.",24 days,0.147 µg/mL
same,"Stability of Plant-Derived Cannabinoid Compounds in AB White, 8° C.",25 days,0.149 µg/mL
same,"Stability of Plant-Derived Cannabinoid Compounds in AB White, 8° C.",26 days,0.152 µg/mL
same,"Stability of Plant-Derived Cannabinoid Compounds in AB White, 8° C.",29 days,0.151 µg/mL
same,"Stability of Plant-Derived Cannabinoid Compounds in AB White, 8° C.",30 days,0.148 µg/mL
same,"Stability of Plant-Derived Cannabinoid Compounds in AB White, 8° C.",60 days,0.143 µg/mL
same,"Stability of Plant-Derived Cannabinoid Compounds in AB White, 8° C.",90 days,0.146 µg/mL
same,"Stability of Plant-Derived Cannabinoid Compounds in AB White, 8° C.",120 days,0.144 µg/mL
same,"Stability of Plant-Derived Cannabinoid Compounds in AB White, 8° C.",150 days,0.150 µg/mL
same,"Stability of Plant-Derived Cannabinoid Compounds in AB White, 8° C.",180 days,0.150 µg/mL
same,"Stability of Plant-Derived Cannabinoid Compounds in AB White, 8° C.",210 days,0.147 µg/mL
same,"Stability of Plant-Derived Cannabinoid Compounds in AB White, 8° C.",240 days,0.145 µg/mL
same,"Stability of Plant-Derived Cannabinoid Compounds in AB White, 8° C.",270 days,0.143 µg/mL
same,"Stability of Plant-Derived Cannabinoid Compounds in AB White, 8° C.",300 days,0.143 µg/mL
same,"Stability of Plant-Derived Cannabinoid Compounds in AB White, 8° C.",330 days,0.146 µg/mL
same,"Stability of Plant-Derived Cannabinoid Compounds in AB White, 8° C.",360 days,0.145 µg/mL
same,"Stability of Plant-Derived Cannabinoid Compounds in AB White, 8° C.",390 days,0.143 µg/mL
same,"Stability of Plant-Derived Cannabinoid Compounds in AB White, 8° C.",420 days,0.144 µg/mL
same,"Stability of Plant-Derived Cannabinoid Compounds in AB White, 8° C.",450 days,0.145 µg/mL
same,"Stability of Plant-Derived Cannabinoid Compounds in AB White, 8° C.",480 days,0.143 µg/mL
same,"Stability of Plant-Derived Cannabinoid Compounds in AB White, 8° C.",510 days,0.138 µg/mL
same,"Stability of Plant-Derived Cannabinoid Compounds in AB White, 8° C.",540 days,0.139 µg/mL
same,"Stability of Plant-Derived Cannabinoid Compounds in AB White, 8° C.",570 days,0.138 µg/mL
same,"Stability of Plant-Derived Cannabinoid Compounds in AB White, 21-25° C.",0 days,0.150 µg/mL
same,"Stability of Plant-Derived Cannabinoid Compounds in AB White, 21-25° C.",1 days,0.149 µg/mL
same,"Stability of Plant-Derived Cannabinoid Compounds in AB White, 21-25° C.",2 days,0.148 µg/mL
same,"Stability of Plant-Derived Cannabinoid Compounds in AB White, 21-25° C.",3 days,0.149 µg/mL
same,"Stability of Plant-Derived Cannabinoid Compounds in AB White, 21-25° C.",5 days,0.144 µg/mL
same,"Stability of Plant-Derived Cannabinoid Compounds in AB White, 21-25° C.",8 days,0.145 µg/mL
same,"Stability of Plant-Derived Cannabinoid Compounds in AB White, 21-25° C.",9 days,0.148 µg/mL
same,"Stability of Plant-Derived Cannabinoid Compounds in AB White, 21-25° C.",10 days,0.147 µg/mL
same,"Stability of Plant-Derived Cannabinoid Compounds in AB White, 21-25° C.",11 days,0.150 µg/mL
same,"Stability of Plant-Derived Cannabinoid Compounds in AB White, 21-25° C.",12 days,0.152 µg/mL
same,"Stability of Plant-Derived Cannabinoid Compounds in AB White, 21-25° C.",15 days,0.151 µg/mL
same,"Stability of Plant-Derived Cannabinoid Compounds in AB White, 21-25° C.",16 days,0.145 µg/mL
same,"Stability of Plant-Derived Cannabinoid Compounds in AB White, 21-25° C.",17 days,0.150 µg/mL
same,"Stability of Plant-Derived Cannabinoid Compounds in AB White, 21-25° C.",18 days,0.151 µg/mL
same,"Stability of Plant-Derived Cannabinoid Compounds in AB White, 21-25° C.",19 days,0.148 µg/mL
same,"Stability of Plant-Derived Cannabinoid Compounds in AB White, 21-25° C.",22 days,0.148 µg/mL
same,"Stability of Plant-Derived Cannabinoid Compounds in AB White, 21-25° C.",23 days,0.148 µg/mL
same,"Stability of Plant-Derived Cannabinoid Compounds in AB White, 21-25° C.",24 days,0.145 µg/mL
same,"Stability of Plant-Derived Cannabinoid Compounds in AB White, 21-25° C.",25 days,0.145 µg/mL
same,"Stability of Plant-Derived Cannabinoid Compounds in AB White, 21-25° C.",26 days,0.149 µg/mL
same,"Stability of Plant-Derived Cannabinoid Compounds in AB White, 21-25° C.",29 days,0.147 µg/mL
same,"Stability of Plant-Derived Cannabinoid Compounds in AB White, 21-25° C.",30 days,0.151 µg/mL
same,"Stability of Plant-Derived Cannabinoid Compounds in AB White, 21-25° C.",60 days,0.149 µg/mL
same,"Stability of Plant-Derived Cannabinoid Compounds in AB White, 21-25° C.",90 days,0.143 µg/mL
same,"Stability of Plant-Derived Cannabinoid Compounds in AB White, 21-25° C.",120 days,0.141 µg/mL
same,"Stability of Plant-Derived Cannabinoid Compounds in AB White, 21-25° C.",150 days,0.146 µg/mL
same,"Stability of Plant-Derived Cannabinoid Compounds in AB White, 21-25° C.",180 days,0.141 µg/mL
same,"Stability of Plant-Derived Cannabinoid Compounds in AB White, 21-25° C.",210 days,0.142 µg/mL
same,"Stability of Plant-Derived Cannabinoid Compounds in AB White, 21-25° C.",240 days,0.145 µg/mL
same,"Stability of Plant-Derived Cannabinoid Compounds in AB White, 21-25° C.",270 days,0.148 µg/mL
same,"Stability of Plant-Derived Cannabinoid Compounds in AB White, 21-25° C.",300 days,0.142 µg/mL
same,"Stability of Plant-Derived Cannabinoid Compounds in AB White, 21-25° C.",330 days,0.144 µg/mL
same,"Stability of Plant-Derived Cannabinoid Compounds in AB White, 21-25° C.",360 days,0.146 µg/mL
same,"Stability of Plant-Derived Cannabinoid Compounds in AB White, 21-25° C.",390 days,0.146 µg/mL
same,"Stability of Plant-Derived Cannabinoid Compounds in AB White, 21-25° C.",420 days,0.143 µg/mL
same,"Stability of Plant-Derived Cannabinoid Compounds in AB White, 21-25° C.",450 days,0.144 µg/mL
same,"Stability of Plant-Derived Cannabinoid Compounds in AB White, 21-25° C.",480 days,0.143 µg/mL
same,"Stability of Plant-Derived Cannabinoid Compounds in AB White, 21-25° C.",510 days,0.139 µg/mL
same,"Stability of Plant-Derived Cannabinoid Compounds in AB White, 21-25° C.",540 days,0.140 µg/mL
same,"Stability of Plant-Derived Cannabinoid Compounds in AB White, 21-25° C.",570 days,0.138 µg/mL
